Results: patent publication EP2853293B1, “Thioninium compounds and their use” (WisTa Laboratories Ltd., priority 2006, dated 2007)
Where a name gives a salt, the structure may show the parent alone. Read-outs that look alike come from different tables or passages of the source.

Experiments:
[1] = target: T1, full-length tau ("T40") in fibroblast cells (3T6) (Homo sapiens, UniProt P10636); assay: Cell-based assay for establishing EC50 (inhibition of generation of the 12 kD PHF-core tau fragment); settings: concentration at which there is a 50% inhibition of generation of the 12 kD fragment; 3T6 cells
T1 construct: fibroblast cells (3T6) express full-length tau ("T40") under control of an inducible promotor; low constitutive levels of the PHF-core tau fragment (12 kD fragment); expressed in transfected cells; host or cells: 3T6 fibroblast cells
Excerpt: In essence, fibroblast cells (3T6) express full-length tau ("T40") under control of an inducible promotor, and low constitutive levels of the PHF-core tau fragment (12 kD fragment).
This is referred to as the EC50 value.

[2] = target: T2, tau-tau binding (truncated tau residues 297-390; dGA, and full-length tau (T40)) (Homo sapiens, UniProt P10636); settings: read-out: B50; concentration of compound required to inhibit the tau-tau binding by 50%
Excerpt: (§1) Briefly, a fragment of tau corresponding to the core repeat domain, which has been adsorbed to a solid phase substrate, is able to capture soluble full-length tau and bind tau with high affinity.
(§2) The aqueous phase binding buffer contained 0.05% Tween-20 and 1% gelatine in phosphate-buffered saline (pH7.4).

[3] = test system: fibroblast cells (3T6); settings: cell numbers after 24 hrs exposure, lactate dehydrogenase assay after lysis of remaining cells
Description: Toxicity of the compounds described herein was assessed in the cell based assay used to assess EC50. Toxicity was measured by cell numbers after 24 hrs exposure to the compound using a lactate dehydrogenase assay kit TOX-7(Sigma Biosciences) according to the manufacturer's instructions after lysis of remaining cells. Alternatively a kit from Promega UK (CytoTox 96) was used, again according to the manufacturer's instructions.

[4] = target: T2, tau-tau binding (truncated tau residues 297-390; dGA, and full-length tau (T40)); assay: biochemical
Excerpt: as §1, §2

T2 sequence (P10636 614-707): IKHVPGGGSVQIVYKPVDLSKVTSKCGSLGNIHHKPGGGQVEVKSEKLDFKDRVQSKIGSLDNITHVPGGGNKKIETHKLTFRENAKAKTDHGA
T2 sequence (P10636 1-441 isoform P10636-8): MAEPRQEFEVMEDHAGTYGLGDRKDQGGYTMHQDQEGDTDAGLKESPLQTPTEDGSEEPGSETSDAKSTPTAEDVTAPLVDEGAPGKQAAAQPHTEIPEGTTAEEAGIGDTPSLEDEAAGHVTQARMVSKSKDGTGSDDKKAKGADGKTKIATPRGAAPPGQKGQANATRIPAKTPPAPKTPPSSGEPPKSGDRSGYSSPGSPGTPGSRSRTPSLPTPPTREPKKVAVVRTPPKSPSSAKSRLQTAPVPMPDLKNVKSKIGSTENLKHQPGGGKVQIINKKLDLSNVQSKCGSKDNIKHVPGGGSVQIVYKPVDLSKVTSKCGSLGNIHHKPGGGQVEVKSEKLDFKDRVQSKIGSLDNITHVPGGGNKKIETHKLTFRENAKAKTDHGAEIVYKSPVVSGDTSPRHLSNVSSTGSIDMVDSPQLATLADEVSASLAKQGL
T1 sequence (P10636 2-441 isoform P10636-8 limits assumed): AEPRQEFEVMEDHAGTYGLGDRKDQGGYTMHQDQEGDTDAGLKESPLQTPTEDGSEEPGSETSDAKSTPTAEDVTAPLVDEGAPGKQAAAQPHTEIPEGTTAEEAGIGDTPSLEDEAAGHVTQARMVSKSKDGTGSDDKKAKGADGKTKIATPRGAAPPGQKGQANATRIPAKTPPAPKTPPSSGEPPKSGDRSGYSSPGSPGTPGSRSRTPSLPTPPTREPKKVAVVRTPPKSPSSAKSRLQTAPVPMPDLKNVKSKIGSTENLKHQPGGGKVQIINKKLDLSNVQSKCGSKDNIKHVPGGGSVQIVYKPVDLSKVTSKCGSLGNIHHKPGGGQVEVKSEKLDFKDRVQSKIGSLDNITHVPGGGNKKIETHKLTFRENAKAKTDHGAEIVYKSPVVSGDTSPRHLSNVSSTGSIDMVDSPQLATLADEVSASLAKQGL

Molecule | EC50 [1] [nM] | IC50 [2] [nM] | LD50 [3] | IC50 [4] [nM]
ethyl-thioninium chloride [ETC] | 70 ± 7 | 49000 ± 8500 | 32.0 ± 4.0 (26) µM | 
CCN(CC)c1ccc2nc3ccc(=[N+](CC)CC)cc-3sc2c1 [ETI, ethyl-thioninium iodide] | 60 | > 500000 |  | 
CCN(CC)c1ccc2nc3ccc(=[N+](CC)CC)cc-3sc2c1 [ETI.HI, ethyl-thioninium iodide hydrogen iodide mixed salt] |  |  |  | 83000
Cc1cc(N(C)C)cc2[s+]c3cc(N(C)C)cc(C)c3nc12 [DMMTC, 1,9-dimethyl-methyl-thioninium chloride, reference compound] | 40 ± 4 |  | 2.7 ± 1.2 (6) µM | 
CCc1cc(N(CC)CC)cc2[s+]c3cc(N(CC)CC)cc(CC)c3nc12 [DEETC, 1,9-diethyl-ethyl-thioninium chloride] | 0.6 ± 0.3 | 3700 ± 500 | 1.6 ± 0.4 (13) µM | 
CCN(CC)c1cc(C)c2nc3c(C)cc(N(CC)CC)cc3[s+]c2c1 [DMETC, 1,9-dimethyl-ethyl-thioninium chloride] | 4 ± 1 | 4500 ± 300 | 4.2 ± 2.2 (4) µM | 
CCc1cc(N(C)C)cc2[s+]c3cc(N(C)C)cc(CC)c3nc12 [DEMTC, 1,9-diethyl-methyl-thioninium chloride] | 1.6 ± 0.6 |  | 3.3 ± 0.6 (22) µM | 
